Patent US20240082223A1, “DIHYDROFUROPYRIDINE DERIVATIVES AS RHO- KINASE INHIBITORS” (CHIESI FARMACEUTICI S.P.A., priority 2020, published 2024)
Each block holds one compound with its values, some of them ahead of it.

Experiments:
ROCK1 = ROCK1 (Homo sapiens, UniProt Q13464); assay: In vitro inhibitory activity assay ROCK1 (Method A, ADP-Glo, 10 μM ATP); type: biochemical; conditions: ATP 10 μM, read-out: Method A ROCK 1 (Ki)
Procedure: (§1) In vitro inhibitory activity assay description ROCK1 and ROCK2
(§2) The effectiveness of compounds of the present invention to inhibit Rho kinase activity can be determined in a 10 μl assay containing 40 mM Tris pH7.5, 20 mM MgCl2 0.1 mg/mL BSA, 50 μM DTT and 2.5 μM peptide substrate (Myelin Basic Protein) using an ADP-Glo kit (Promega). Compounds were dissolved in DMSO such that the final concentration of DMSO was 1% in the assay. All reactions/incubations are performed at 25° C. Compound (2 uL) and either Rho kinase 1 or 2 (4 μl) were mixed and incubated for 30 min. Reactions were initiated by addition of ATP (4 μL) such that the final concentration of ATP in the assay was 10 μM. After a 1 hour incubation […] of ADP-Glo Reagent was added and after a further 45 minutes incubation 20 uL of Kinase Detection Buffer was added and the mixture incubated for a further 30 minutes. The luminescent signal was measured on a luminometer. […] Compounds were tested in dose-response format and the inhibition of kinase activity was calculated at each concentration of compound. To determine the IC50 (concentration of compound required to inhibit 50% of the enzyme activity) data were fit to a plot of % inhibition vs Log10 compound concentration using a sigmoidal fit with a variable slope and fixing the maximum to 100% and the minimum to 0%. To determine the Ki values the Cheng-Prusoff equation was utilized (Ki=IC50/(1+[S]/Km).

ROCK2 = ROCK2 (Homo sapiens, UniProt O75116); assay: In vitro inhibitory activity assay ROCK2 (Method A, ADP-Glo, 10 μM ATP); type: biochemical; conditions: ATP 10 μM, read-out: Method A ROCK 2 (Ki)
Procedure: as §1, §2

ROCK1, sequence (Q13464 whole entry): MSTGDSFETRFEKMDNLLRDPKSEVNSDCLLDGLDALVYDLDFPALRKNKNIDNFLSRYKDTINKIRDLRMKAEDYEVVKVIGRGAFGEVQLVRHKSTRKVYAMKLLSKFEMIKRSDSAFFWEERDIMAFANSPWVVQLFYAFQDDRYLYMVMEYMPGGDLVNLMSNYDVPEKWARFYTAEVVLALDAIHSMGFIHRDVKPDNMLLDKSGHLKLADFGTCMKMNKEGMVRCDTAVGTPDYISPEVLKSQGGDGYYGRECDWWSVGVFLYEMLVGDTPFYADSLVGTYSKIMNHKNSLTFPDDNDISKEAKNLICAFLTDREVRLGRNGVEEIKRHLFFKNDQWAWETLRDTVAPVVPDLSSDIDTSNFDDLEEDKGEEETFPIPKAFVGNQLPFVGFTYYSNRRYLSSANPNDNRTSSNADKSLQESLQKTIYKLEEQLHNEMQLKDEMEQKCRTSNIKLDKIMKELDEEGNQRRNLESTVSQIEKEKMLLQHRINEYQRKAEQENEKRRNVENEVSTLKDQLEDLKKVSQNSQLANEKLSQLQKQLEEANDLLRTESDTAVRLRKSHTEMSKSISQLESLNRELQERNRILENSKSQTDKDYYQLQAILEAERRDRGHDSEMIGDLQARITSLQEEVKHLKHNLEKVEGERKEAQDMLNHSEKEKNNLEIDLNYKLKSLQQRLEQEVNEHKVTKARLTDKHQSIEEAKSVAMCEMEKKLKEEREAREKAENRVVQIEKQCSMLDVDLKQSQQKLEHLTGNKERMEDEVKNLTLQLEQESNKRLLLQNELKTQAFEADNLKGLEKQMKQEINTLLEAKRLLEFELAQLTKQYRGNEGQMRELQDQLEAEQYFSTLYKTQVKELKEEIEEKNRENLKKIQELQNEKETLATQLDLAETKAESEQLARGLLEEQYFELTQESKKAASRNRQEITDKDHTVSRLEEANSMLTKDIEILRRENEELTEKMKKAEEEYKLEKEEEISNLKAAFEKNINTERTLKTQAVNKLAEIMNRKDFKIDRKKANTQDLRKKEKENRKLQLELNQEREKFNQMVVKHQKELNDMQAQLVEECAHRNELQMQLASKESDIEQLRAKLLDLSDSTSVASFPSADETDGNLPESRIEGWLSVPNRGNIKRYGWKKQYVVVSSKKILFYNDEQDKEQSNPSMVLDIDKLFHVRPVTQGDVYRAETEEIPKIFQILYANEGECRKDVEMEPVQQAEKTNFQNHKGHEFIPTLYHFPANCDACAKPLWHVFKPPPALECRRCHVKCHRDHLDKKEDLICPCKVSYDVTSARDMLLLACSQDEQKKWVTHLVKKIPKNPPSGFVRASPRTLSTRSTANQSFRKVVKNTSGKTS
ROCK2, sequence (O75116 whole entry): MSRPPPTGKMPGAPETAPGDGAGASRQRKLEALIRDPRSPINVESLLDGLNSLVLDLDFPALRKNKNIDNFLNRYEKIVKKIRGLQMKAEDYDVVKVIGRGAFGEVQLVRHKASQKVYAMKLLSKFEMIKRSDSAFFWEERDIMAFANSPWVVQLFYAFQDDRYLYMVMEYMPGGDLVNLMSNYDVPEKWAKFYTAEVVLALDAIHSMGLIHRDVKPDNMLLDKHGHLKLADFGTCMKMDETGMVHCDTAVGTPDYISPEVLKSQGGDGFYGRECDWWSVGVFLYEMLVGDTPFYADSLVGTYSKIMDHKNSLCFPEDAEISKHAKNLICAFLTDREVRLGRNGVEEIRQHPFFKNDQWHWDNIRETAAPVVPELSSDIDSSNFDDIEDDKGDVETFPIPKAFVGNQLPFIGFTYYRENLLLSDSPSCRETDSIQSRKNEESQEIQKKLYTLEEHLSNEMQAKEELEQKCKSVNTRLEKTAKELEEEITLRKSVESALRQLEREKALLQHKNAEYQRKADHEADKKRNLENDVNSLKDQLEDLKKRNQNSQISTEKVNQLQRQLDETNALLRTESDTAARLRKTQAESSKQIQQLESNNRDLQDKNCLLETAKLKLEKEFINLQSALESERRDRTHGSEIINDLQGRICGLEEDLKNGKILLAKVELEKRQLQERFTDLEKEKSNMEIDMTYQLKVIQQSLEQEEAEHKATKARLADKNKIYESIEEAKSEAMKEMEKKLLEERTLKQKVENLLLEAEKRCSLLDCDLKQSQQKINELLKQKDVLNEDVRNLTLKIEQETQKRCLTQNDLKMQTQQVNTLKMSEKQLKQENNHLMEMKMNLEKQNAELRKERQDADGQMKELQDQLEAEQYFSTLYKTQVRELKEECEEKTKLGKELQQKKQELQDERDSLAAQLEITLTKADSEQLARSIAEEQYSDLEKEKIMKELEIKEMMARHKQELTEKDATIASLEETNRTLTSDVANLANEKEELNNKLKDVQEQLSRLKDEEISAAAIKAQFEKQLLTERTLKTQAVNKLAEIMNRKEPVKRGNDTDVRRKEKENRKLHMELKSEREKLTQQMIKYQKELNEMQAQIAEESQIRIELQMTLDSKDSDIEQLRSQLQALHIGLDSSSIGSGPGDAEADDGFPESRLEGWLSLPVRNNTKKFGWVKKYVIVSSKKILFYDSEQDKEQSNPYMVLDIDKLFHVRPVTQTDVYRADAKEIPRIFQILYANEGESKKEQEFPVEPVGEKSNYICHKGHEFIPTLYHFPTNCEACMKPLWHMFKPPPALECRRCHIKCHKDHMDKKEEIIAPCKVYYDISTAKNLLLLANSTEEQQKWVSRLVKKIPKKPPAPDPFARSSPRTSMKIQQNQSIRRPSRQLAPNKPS

SMILES: O=C(NCCc1ccncc1)c1cccc(CNc2ncc(-c3cn[nH]c3)c3c2CCO3)c1 [Example 17, 3-(((7-(1H-pyrazol-4-yl)-2,3-dihydrofuro[3,2-c]pyridin-4-yl)amino)methyl)-N-(2-(pyridin-4-yl)ethyl)benzamide]
- Ki (ROCK1): ≤ 3 nM
- Ki (ROCK2): ≤ 3 nM

SMILES: O=C(NCCN1CCOCC1)c1cccc(CNc2ncc(-c3cn[nH]c3)c3c2CCO3)c1 [Example 20, 3-(((7-(1H-pyrazol-4-yl)-2,3-dihydrofuro[3,2-c]pyridin-4-yl)amino)methyl)-N-(2-morpholinoethyl)benzamide]
- Ki (ROCK1): ≤ 3 nM
- Ki (ROCK2): ≤ 3 nM

SMILES: CN1CCc2nc(NC(=O)c3cccc(CNc4ncc(-c5cn[nH]c5)c5c4CCO5)c3)sc2C1 [Example 21, 3-(((7-(1H-pyrazol-4-yl)-2,3-dihydrofuro[3,2-c]pyridin-4-yl)amino)methyl)-N-(5-methyl-4,5,6,7-tetrahydrothiazolo[5,4-c]pyridin-2-yl)benzamide]
- Ki (ROCK1): ≤ 3 nM
- Ki (ROCK2): ≤ 3 nM

SMILES: CN(C)Cc1ccc(CNC(=O)c2cccc(CNc3ncc(-c4cn[nH]c4)c4c3CCO4)c2)cc1 [Example 24, 3-(((7-(1H-pyrazol-4-yl)-2,3-dihydrofuro[3,2-c]pyridin-4-yl)amino)methyl)-N-(4-((dimethylamino)methyl)benzyl)benzamide]
- Ki (ROCK1): ≤ 3 nM
- Ki (ROCK2): ≤ 3 nM

SMILES: O=C(NC1CCN(CCc2ccccc2)CC1)c1cccc(CNc2ncc(-c3cn[nH]c3)c3c2CCO3)c1 [Example 26, 3-(((7-(1H-pyrazol-4-yl)-2,3-dihydrofuro[3,2-c]pyridin-4-yl)amino)methyl)-N-(1-phenethylpiperidin-4-yl)benzamide]
- Ki (ROCK1): ≤ 3 nM
- Ki (ROCK2): ≤ 3 nM

SMILES: CN(C)CCn1cc(NC(=O)c2cccc(CNc3ncc(-c4cn[nH]c4)c4c3CCO4)c2)cn1 [Example 27, 3-(((7-(1H-pyrazol-4-yl)-2,3-dihydrofuro[3,2-c]pyridin-4-yl)amino)methyl)-N-(1-(2-(dimethylamino)ethyl)-1H-pyrazol-4-yl)benzamide]
- Ki (ROCK1): ≤ 3 nM
- Ki (ROCK2): ≤ 3 nM

SMILES: CN1CCc2nc(CNC(=O)c3cccc(CNc4ncc(-c5cn[nH]c5)c5c4CCO5)c3)sc2C1 [Example 29, 3-(((7-(1H-pyrazol-4-yl)-2,3-dihydrofuro[3,2-c]pyridin-4-yl)amino)methyl)-N-((5-methyl-4,5,6,7-tetrahydrothiazolo[5,4-c]pyridin-2-yl)methyl)benzamide]
- Ki (ROCK1): 3 to 30 nM
- Ki (ROCK2): ≤ 3 nM

SMILES: CN(C)Cc1ccc(C(=O)Nc2cccc(CNc3ncc(-c4cn[nH]c4)c4c3CCO4)c2)cc1 [Example 35, N-(3-(((7-(1H-Pyrazol-4-yl)-2,3-dihydrofuro[3,2-c]pyridin-4-yl)amino)methyl)phenyl)-4-((dimethylamino)methyl)benzamide]
- Ki (ROCK1): ≤ 3 nM
- Ki (ROCK2): ≤ 3 nM

SMILES: CN1CCc2nc(C(=O)Nc3cccc(CNc4ncc(-c5cn[nH]c5)c5c4CCO5)c3)sc2C1 [Example 37, N-(3-(((7-(1H-pyrazol-4-yl)-2,3-dihydrofuro[3,2-c]pyridin-4-yl)amino)methyl)phenyl)-5-methyl-4,5,6,7-tetrahydrothiazolo[5,4-c]pyridine-2-carboxamide]
- Ki (ROCK1): ≤ 3 nM
- Ki (ROCK2): ≤ 3 nM

SMILES: Cn1ncc2cc(C(=O)Nc3cccc(CNc4ncc(-c5cn[nH]c5)c5c4CCO5)c3)ccc21 [Example 39, N-(3-(((7-(1H-pyrazol-4-yl)-2,3-dihydrofuro[3,2-c]pyridin-4-yl)amino)methyl)phenyl)-1-methyl-1H-indazole-5-carboxamide]
- Ki (ROCK1): ≤ 3 nM
- Ki (ROCK2): ≤ 3 nM

SMILES: O=C(Nc1cccc(CNc2ncc(-c3cn[nH]c3)c3c2CCO3)c1)c1ccc2c(c1)CCNC2 [Example 40, N-(3-(((7-(1H-pyrazol-4-yl)-2,3-dihydrofuro[3,2-c]pyridin-4-yl)amino)methyl)phenyl)-1,2,3,4-tetrahydroisoquinoline-6-carboxamide]
- Ki (ROCK1): ≤ 3 nM
- Ki (ROCK2): ≤ 3 nM

SMILES: Cn1nc(C(=O)Nc2cccc(CNc3ncc(-c4cn[nH]c4)c4c3CCO4)c2)c2ccccc21 [Example 41, N-(3-(((7-(1H-pyrazol-4-yl)-2,3-dihydrofuro[3,2-c]pyridin-4-yl)amino)methyl)phenyl)-1-methyl-1H-indazole-3-carboxamide]
- Ki (ROCK1): > 30 nM
- Ki (ROCK2): 3 to 30 nM

SMILES: CN(C)Cc1cccc(C(=O)Nc2cccc(CNc3ncc(-c4cn[nH]c4)c4c3CCO4)c2)c1 [Example 49, N-(3-(((7-(1H-pyrazol-4-yl)-2,3-dihydrofuro[3,2-c]pyridin-4-yl)amino)methyl)phenyl)-3-((dimethylamino)methyl)benzamide]
- Ki (ROCK1): ≤ 3 nM
- Ki (ROCK2): ≤ 3 nM

SMILES: O=C(Cc1ccccc1)Nc1cccc(CNc2ncc(-c3cn[nH]c3)c3c2CCO3)c1 [Example 50, N-(3-(((7-(1H-pyrazol-4-yl)-2,3-dihydrofuro[3,2-c]pyridin-4-yl)amino)methyl)phenyl)-2-phenylacetamide]
- Ki (ROCK1): 3 to 30 nM
- Ki (ROCK2): 3 to 30 nM

SMILES: CC(=O)Nc1cccc(C(C)Nc2ncc(-c3cn[nH]c3)c3c2CCO3)c1 (stereo not shown) [Example 52, N-(3-(1-((7-(1H-pyrazol-4-yl)-2,3-dihydrofuro[3,2-c]pyridin-4-yl)amino)ethyl)phenyl)acetamide]
- Ki (ROCK1): 3 to 30 nM
- Ki (ROCK2): 3 to 30 nM

Results, then the compound that gave them:

- Ki (ROCK1): ≤ 3 nM
- Ki (ROCK2): ≤ 3 nM
SMILES: CN(C)Cc1cccc(NC(=O)c2cccc(CNc3ncc(-c4cn[nH]c4)c4c3CCO4)c2)c1 [Example 18, 3-(((7-(1H-pyrazol-4-yl)-2,3-dihydrofuro[3,2-c]pyridin-4-yl)amino)methyl)-N-(3-((dimethylamino)methyl)phenyl)benzamide]

- Ki (ROCK1): ≤ 3 nM
- Ki (ROCK2): ≤ 3 nM
SMILES: CN(C)Cc1cccc(CNC(=O)c2cccc(CNc3ncc(-c4cn[nH]c4)c4c3CCO4)c2)c1 [Example 19, 3-(((7-(1H-pyrazol-4-yl)-2,3-dihydrofuro[3,2-c]pyridin-4-yl)amino)methyl)-N-(3-((dimethylamino)methyl)benzyl)benzamide]

- Ki (ROCK1): ≤ 3 nM
- Ki (ROCK2): ≤ 3 nM
SMILES: O=C(NCCc1cccnc1)c1cccc(CNc2ncc(-c3cn[nH]c3)c3c2CCO3)c1 [Example 22, 3-(((7-(1H-pyrazol-4-yl)-2,3-dihydrofuro[3,2-c]pyridin-4-yl)amino)methyl)-N-(2-(pyridin-3-yl)ethyl)benzamide]

- Ki (ROCK1): ≤ 3 nM
- Ki (ROCK2): ≤ 3 nM
SMILES: O=C(N[C@H](CO)c1ccccc1)c1cccc(CNc2ncc(-c3cn[nH]c3)c3c2CCO3)c1 [Example 23, (S)-3-(((7-(1H-pyrazol-4-yl)-2,3-dihydrofuro[3,2-c]pyridin-4-yl)amino)methyl)-N-(2-hydroxy-1-phenylethyl)benzamide]

- Ki (ROCK1): ≤ 3 nM
- Ki (ROCK2): ≤ 3 nM
SMILES: Cc1ccc(CNC(=O)c2cccc(CNc3ncc(-c4cn[nH]c4)c4c3CCO4)c2)s1 [Example 25, 3-(((7-(1H-pyrazol-4-yl)-2,3-dihydrofuro[3,2-c]pyridin-4-yl)amino)methyl)-N-((5-methylthiophen-2-yl)methyl)benzamide]

- Ki (ROCK1): ≤ 3 nM
- Ki (ROCK2): ≤ 3 nM
SMILES: CN1Cc2ccc(CNC(=O)c3cccc(CNc4ncc(-c5cn[nH]c5)c5c4CCO5)c3)cc2C1 [Example 30, 3-(((7-(1H-pyrazol-4-yl)-2,3-dihydrofuro[3,2-c]pyridin-4-yl)amino)methyl)-N-((2-methylisoindolin-5-yl)methyl)benzamide]

- Ki (ROCK1): ≤ 3 nM
- Ki (ROCK2): ≤ 3 nM
SMILES: CN1CCc2sc(C(=O)Nc3cccc(CNc4ncc(-c5cn[nH]c5)c5c4CCO5)c3)nc2C1 [Example 36, N-(3-(((7-(1H-pyrazol-4-yl)-2,3-dihydrofuro[3,2-c]pyridin-4-yl)amino)methyl)phenyl)-5-methyl-4,5,6,7-tetrahydrothiazolo[4,5-c]pyridine-2-carboxamide]

- Ki (ROCK1): ≤ 3 nM
- Ki (ROCK2): ≤ 3 nM
SMILES: O=C(Nc1cccc(CNc2ncc(-c3cn[nH]c3)c3c2CCO3)c1)c1nc2c(s1)CN(CCO)CC2 [Example 38, N-(3-(((7-(1H-pyrazol-4-yl)-2,3-dihydrofuro[3,2-c]pyridin-4-yl)amino)methyl)phenyl)-5-(2-hydroxyethyl)-4,5,6,7-tetrahydrothiazolo[5,4-c]pyridine-2-carboxamide]

- Ki (ROCK1): 3 to 30 nM
- Ki (ROCK2): ≤ 3 nM
SMILES: Cn1ncc2c(C(=O)Nc3cccc(CNc4ncc(-c5cn[nH]c5)c5c4CCO5)c3)cccc21 [Example 42, N-(3-(((7-(1H-pyrazol-4-yl)-2,3-dihydrofuro[3,2-c]pyridin-4-yl)amino)methyl)phenyl)-1-methyl-1H-indazole-4-carboxamide]

- Ki (ROCK1): ≤ 3 nM
- Ki (ROCK2): ≤ 3 nM
SMILES: O=C(Nc1cc(CNc2ncc(-c3cn[nH]c3)c3c2CCO3)ccc1F)c1ccc2c(c1)CCNC2 [Example 47, N-(5-(((7-(1H-pyrazol-4-yl)-2,3-dihydrofuro[3,2-c]pyridin-4-yl)amino)methyl)-2-fluorophenyl)-1,2,3,4-tetrahydroisoquinoline-6-carboxamide]

- Ki (ROCK1): ≤ 3 nM
- Ki (ROCK2): ≤ 3 nM
SMILES: CN1CCc2cc(C(=O)Nc3cccc(CNc4ncc(-c5cn[nH]c5)c5c4CCO5)c3)cnc2C1 [Example 51, N-(3-(((7-(1H-pyrazol-4-yl)-2,3-dihydrofuro[3,2-c]pyridin-4-yl)amino)methyl)phenyl)-7-methyl-5,6,7,8-tetrahydro-1,7-naphthyridine-3-carboxamide]
